Experimental data from article PMC8944596, “Determination of the Relationships between the Chemical Structure and Antimicrobial Activity of a GAPDH-Related Fish Antimicrobial Peptide and Analogs Thereof” (Antibiotics, 2022).
Values after ≈ are worked out from the molar mass of the structure shown. Ends that are not written are not given here.

How the values were obtained:
E. coli ATCC 25922 [1] = tested on: E. coli ATCC 25922; set-up: method as in PMID 1605597; details: cited from earlier work
P. aeruginosa ATCC 27853 = tested on: P. aeruginosa ATCC 27853; set-up: method as in PMID 1605597; details: cited from earlier work
E. coli ATCC 25922 [2] = assay: Broth microdilution MIC/MBC; format: cell-based; details: Escherichia coli, ATCC25922, MHB, 5 × 10^5 CFU/mL, 16 h at 37 °C, no visible growth, three independent repetitions, two technical replicates
Procedure: Escherichia coli ATCC 25922, Escherichia coli ATCC 11229, Pseudomonas aeruginosa ATCC 27853, Aeromonas salmonicida subsp. salmonicida 69 R3, Aeromonas salmonicida subsp. salmonicida 69 R5 [53], Micrococcus luteus LMA-272, and Listeria ivanovii ATCC 19119 were used for antibacterial activity testing. Details on these strains used in this study are included in Table 6. All these strains were cultivated in tryptic soy broth (TSB) (BD, Sparks, NV, USA), except for L. ivanovii, which was grown in brain heart infusion (BHI) broth (BD, Sparks, USA). All bacterial strains were grown at 37 °C, except for the two A. salmonicida strains, which were incubated at 20 °C. Strains were sub-cultured at least twice, before being used for antimicrobial and membrane permeabilization assays.
MICs for bacterial strains were determined using a broth microdilution protocol. Two-fold dilutions of peptide solutions ([…]) were made in Mueller Hinton Broth (MHB) (Oxoid, Basingstoke, UK) in 96-well polypropylene clear round bottom microplates (Corning Inc., Corning, NY, USA). […] Final volumes in the wells were of 200 μL. […] After reading of the MICs, 20 μL of the wells that were showing no visible bacterial growth were inoculated on tryptic soy agar (TSA) (or BHI agar for Listeria ivanovii) plates, which were then incubated at the appropriate temperature for 24 h. […]

Z. rouxii LL12_088 = assay: Antifungal microdilution MIC/MFC; format: cell-based, Zygosaccharomyces rouxii; details: 99.9% inhibition of yeast growth by CFU counts on PDA
Procedure: Mucor racemosus LMA-722, Paecilomyces sp. 5332-9a, and Aspergillus niger 3071-13 were used as filamentous fungal strains. Saccharomyces boulardii 27169, Rhodotorula mucilaginosa 27173, and Zygosaccharomyces rouxii LL12_088 were used as yeast strains. Fungal strains were sub-cultured on potato dextrose agar (PDA) (BD, Sparks, USA) plates, at 25 °C, at least two times, before being used for antimicrobial and membrane permeabilization testing.
MICs were also tested using microdilutions in 96-well plates for fungal strains. The protocol used was roughly the same as that described for bacterial strains. RPMI 1640 (Sigma-Aldrich, St. Louis, MO, USA), buffered with MOPS (Fisher Scientific, Fair Lawn, NJ, USA) (0.164 M, pH = 7), was used instead of MHB, according to CLSI guidelines. Potato dextrose broth was used for microplates inoculated with Z. rouxii yeast. For filamentous fungi, conidia were harvested from 7-day cultures and diluted in buffered RPMI 1640 to obtain a suspension containing 5 × 10^4 CFU/mL, as assessed with a COUNTESS II FL automatic cell counter (Thermo Fisher Scientific, Waltham, MA, USA). […] Plates were then incubated for 24 (yeasts) or 48 (filamentous fungi) h at 25 °C. […] Natamycin (Sigma-Aldrich, St. Louis, MO, USA) was used as positive control for all fungal strains. […]

## magainin-2
E. coli ATCC 25922 [1]
  MIC, E. coli ATCC 25922: 50 µg/mL
P. aeruginosa ATCC 27853
  MIC, P. aeruginosa ATCC 27853: 50 µg/mL

## O=C(N[C@H](CO)[C@H](O)c1ccc([N+](=O)[O-])cc1)C(Cl)Cl [Chloramphenicol]
E. coli ATCC 25922 [2]
  MIC: 4 µg/mL (≈ 12.4 µM)

## HGKKVEIVAIND [Analog 4]
Z. rouxii LL12_088
  MFC, Z. rouxii LL12_088: n.f.a. (No fungicidal activity)
